For orientation: IC50 means the point on the concentration scale where inhibition reaches its midpoint. For orientation: EC50 means the concentration giving half of the maximal effect.

Activity calls are given as the source filed them. For most assays here, no stated cut-off is given here; in the data, active = IC50 of 10 µM or less and inactive = more. Some results are limits rather than exact numbers.

Three compounds from ChEMBL document CHEMBL1201862, “PubChem BioAssay data set” (2004) can be followed below.

The target of assay [1] is NS3 (Hepatitis C virus, UniProt A3EZJ3). Kind of assay: PubChem AID 2173. On the set-up: species or system Hepacivirus hominis.
The nature of assay [2]: enhancers of respiration in Yfh1-depleted yeast, dose response, Friedreich's ataxia, plus single-dose screen (AID 1465).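 Further: yeast depleted of Yfh1p frataxin homolog grown on glycerol needing respiration; WST-1 tetrazolium dye reduction as measure of cellular dehydrogenase metabolic activity.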 Type of assay: functional.
For assay [3], the target named is Neuropeptide Y receptor type 2 (Homo sapiens, UniProt P49146). Kind of assay: NPY-Y2 antagonist potency, selectivity check, dose response, counter-screen for NPY-Y1 antagonist project, cell-based (AID 1278). Type of assay: functional. In general terms: Counterscreens check selectivity or assay interference.
The target of assay [4] is Neuropeptide Y receptor type 1 (Homo sapiens, UniProt P25929). Nature of the assay: NPY-Y1 receptor antagonist potency, dose response, cell-based (AID 1277). Type of assay: functional.
Neuropeptide Y receptor type 1, sequence (P25929 whole entry): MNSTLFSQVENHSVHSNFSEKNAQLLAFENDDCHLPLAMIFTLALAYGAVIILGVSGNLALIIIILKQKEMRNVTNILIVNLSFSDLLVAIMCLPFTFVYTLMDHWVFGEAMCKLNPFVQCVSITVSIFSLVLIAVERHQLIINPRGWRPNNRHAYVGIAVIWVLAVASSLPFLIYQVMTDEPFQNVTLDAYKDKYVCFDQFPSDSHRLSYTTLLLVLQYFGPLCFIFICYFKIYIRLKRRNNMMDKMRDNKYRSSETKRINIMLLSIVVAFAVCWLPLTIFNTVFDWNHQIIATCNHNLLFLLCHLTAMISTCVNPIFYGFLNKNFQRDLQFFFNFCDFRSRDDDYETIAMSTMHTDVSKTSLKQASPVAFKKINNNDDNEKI

NS3, sequence (A3EZJ3 whole entry): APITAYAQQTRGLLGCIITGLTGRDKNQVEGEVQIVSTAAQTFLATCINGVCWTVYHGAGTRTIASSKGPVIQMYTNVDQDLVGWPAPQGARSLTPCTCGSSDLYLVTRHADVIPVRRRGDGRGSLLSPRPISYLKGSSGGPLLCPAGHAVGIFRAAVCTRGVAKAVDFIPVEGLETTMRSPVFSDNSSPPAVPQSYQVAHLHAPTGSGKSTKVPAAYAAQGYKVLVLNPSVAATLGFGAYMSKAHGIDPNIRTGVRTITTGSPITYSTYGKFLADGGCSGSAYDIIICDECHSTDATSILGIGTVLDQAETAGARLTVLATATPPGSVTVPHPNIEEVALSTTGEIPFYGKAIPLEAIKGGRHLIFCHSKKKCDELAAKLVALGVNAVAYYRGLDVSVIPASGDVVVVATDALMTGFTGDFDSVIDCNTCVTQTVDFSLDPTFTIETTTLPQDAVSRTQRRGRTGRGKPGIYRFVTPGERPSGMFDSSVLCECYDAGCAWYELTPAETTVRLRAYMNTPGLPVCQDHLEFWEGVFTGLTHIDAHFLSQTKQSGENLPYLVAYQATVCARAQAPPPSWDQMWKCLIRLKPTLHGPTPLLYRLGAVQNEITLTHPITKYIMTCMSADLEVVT
Neuropeptide Y receptor type 2, sequence (P49146 whole entry): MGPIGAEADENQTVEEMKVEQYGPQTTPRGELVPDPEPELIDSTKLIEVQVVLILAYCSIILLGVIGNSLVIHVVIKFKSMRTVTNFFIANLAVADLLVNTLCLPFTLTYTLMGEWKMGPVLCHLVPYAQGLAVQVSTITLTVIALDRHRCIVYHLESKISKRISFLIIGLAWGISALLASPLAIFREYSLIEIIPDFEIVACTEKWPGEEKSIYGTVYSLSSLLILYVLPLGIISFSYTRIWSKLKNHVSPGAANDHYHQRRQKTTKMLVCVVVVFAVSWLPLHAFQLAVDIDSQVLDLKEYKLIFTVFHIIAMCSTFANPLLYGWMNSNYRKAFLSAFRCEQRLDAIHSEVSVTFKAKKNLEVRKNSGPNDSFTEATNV

Take `Cc1cc(Cl)ccc1Oc1ccccc1C(=O)CC#N`: in assay [1], the IC50 was 3.54 µM (active).
For the compound `CCOc1ccc2nc(NN=C3C(=O)NC(=O)NC3=O)sc2c1`, the EC50 in assay [2] is > 100 µM (active).
As for `COc1ccc(C2N(c3ccc(Cl)cc3)N=C(C(C)=O)N(C)N2C(C)=O)cc1` (centres undefined), the IC50 in assay [3] and in assay [4] was > 35 µM (not active) throughout.
